The results in this text go back to PubChem BioAssay (NCI).

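Five concentrations, 48 hours, 96-well plates. The concentration for 50% growth inhibition is given as GI50. TGI: total growth inhibition.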

Test systems include A498 renal; ACHN renal; DU-145 prostate; HCT-15 colon; HL-60(TB) leukemia; HOP-62 NSCLC; HT29 colon; MDA-MB-231 breast; NCI-H226 lung; OVCAR-4 ovarian; SF-295 CNS; SF-539 CNS; SN12C renal; SNB-19 CNS; SNB-75 CNS; TK-10 renal.
Common to all, as to experiment: NCI tumour cell line growth inhibition, 48 h

As to `Brc1cc(CCOC2CCCCO2)c(-c2sccc2CCOC2CCCCO2)s1` (centres undefined), the TGI with A498 renal was over 100 µM; with ACHN renal it was over 100 µM; in the experiment on DU-145 prostate, over 100 µM; in the experiment with HCT-15 colon, over 100 µM; in the experiment on HL-60(TB) leukemia it was 42.3 µM; with HOP-62 NSCLC, over 100 µM. For the same molecule, the TGI in the experiment on HT29 colon, in the experiment with MDA-MB-231 breast, with NCI-H226 lung, with OVCAR-4 ovarian, with SF-295 CNS and in the experiment on SF-539 CNS was over 100 µM each time. In addition, the TGI in the experiment with SN12C renal, in the experiment on SNB-19 CNS, in the experiment on SNB-75 CNS and with TK-10 renal was over 100 µM throughout.
For `O=C(c1cccs1)N(C(=S)OC12CC3CC(CC(C3)C1)C2)c1ccccc1`, the TGI with A498 renal was over 100 µM; in the experiment on ACHN renal, over 100 µM; in the experiment on DU-145 prostate it was over 100 µM; in the experiment on HCT-15 colon, over 100 µM; in the experiment on HL-60(TB) leukemia it was 72.5 µM; in the experiment with HOP-62 NSCLC, over 100 µM. The TGI in the experiment with HT29 colon, with MDA-MB-231 breast, in the experiment on NCI-H226 lung, with OVCAR-4 ovarian, with SF-295 CNS and in the experiment on SF-539 CNS was over 100 µM in each case. The TGI was 89.8 µM in the experiment on SN12C renal, over 100 µM in the experiment on SNB-19 CNS, over 100 µM in the experiment with SNB-75 CNS and over 100 µM with TK-10 renal.
Regarding `Cn1c2ccc3cc2c(=S)c2cc(ccc21)OCCOCCOCCOCCOCCO3`, the TGI in the experiment with A498 renal, in the experiment with ACHN renal, in the experiment on DU-145 prostate, in the experiment on HCT-15 colon, in the experiment on HL-60(TB) leukemia and with HOP-62 NSCLC was over 10 µM throughout. Besides, the TGI in the experiment on HT29 colon, with MDA-MB-231 breast, in the experiment on NCI-H226 lung, with OVCAR-4 ovarian, with SF-295 CNS and with SF-539 CNS was over 10 µM each time. Besides, the TGI in the experiment on SN12C renal, in the experiment with SNB-19 CNS, in the experiment with SNB-75 CNS and in the experiment with TK-10 renal was over 10 µM throughout.
Consider `CC1CC[C@@]2(OC1)OC1C[C@H]3[C@@H]4CC=C5CC(OC6OC(CO)C(OC7OC(CO)C(O)C(OC8OCC(O)C(O)C8O)C7OC7OC(CO)C(O)C(O)C7O)C(O)C6O)CCC5(C)[C@H]4CCC3(C)C1[C@@H]2C` (some centres undefined), for which the TGI was 9.19 µM in the experiment on A498 renal; 10.6 µM in the experiment on ACHN renal; 9.48 µM in the experiment with DU-145 prostate; over 25 µM in the experiment with HCT-15 colon; 9.35 µM in the experiment with HL-60(TB) leukemia; 9.32 µM with HOP-62 NSCLC. In addition, the TGI with HT29 colon is 9.4 µM; in the experiment on MDA-MB-231 breast it was 9.29 µM; in the experiment on NCI-H226 lung it was over 25 µM; in the experiment on OVCAR-4 ovarian it was 17.4 µM; with SF-295 CNS, 21.2 µM; in the experiment on SF-539 CNS, 7.37 µM. Also, the TGI in the experiment with SN12C renal is 8.27 µM; with SNB-19 CNS, over 25 µM; in the experiment on SNB-75 CNS it was 13.7 µM; with TK-10 renal it was 20.2 µM.
As for `CCCNC(=O)CCC(C)C1CCC2C3C(C[C@H](OC(C)=O)[C@]12C)[C@@]1(C)CCC2(C[C@H]1C[C@H]3OC(C)=O)OOC1(CC[C@]3(C)C4C[C@H](OC(C)=O)[C@]5(C)C(C(C)CCC(=O)NCCC)CCC5C4[C@H](OC(C)=O)C[C@@H]3C1)OO2` (some centres undefined), the TGI with A498 renal is over 100 µM; in the experiment with ACHN renal it was over 82.2 µM; in the experiment with DU-145 prostate, over 100 µM; in the experiment with HCT-15 colon, over 100 µM; in the experiment with HL-60(TB) leukemia it was over 100 µM; in the experiment with HOP-62 NSCLC it was over 100 µM. The TGI with HT29 colon is over 100 µM; in the experiment with MDA-MB-231 breast, over 83.4 µM; in the experiment with NCI-H226 lung, over 84.7 µM; in the experiment with OVCAR-4 ovarian it was over 100 µM; in the experiment on SF-295 CNS it was over 100 µM; in the experiment on SF-539 CNS, over 100 µM. Also, the TGI with SN12C renal was over 100 µM; with SNB-19 CNS it was over 100 µM; in the experiment on SNB-75 CNS, over 69.5 µM; in the experiment with TK-10 renal, over 100 µM. The GI50 in the experiment with SF-539 CNS was over 82.2 µM.
`Nc1ccc2c(SCc3ccc([N+](=O)[O-])cc3)c3ccccc3nc2c1`: the TGI in the experiment on A498 renal turned out to be 49.2 µM; in the experiment with ACHN renal, 14.5 µM; with DU-145 prostate it was 17.9 µM; in the experiment on HCT-15 colon, 31.1 µM; in the experiment with HL-60(TB) leukemia, 10.1 µM; in the experiment with HOP-62 NSCLC, 46.5 µM. The TGI in the experiment on HT29 colon is 32.6 µM; in the experiment with MDA-MB-231 breast, over 55.8 µM; in the experiment with NCI-H226 lung, 38.3 µM; in the experiment on OVCAR-4 ovarian, 30.6 µM; with SF-295 CNS it was 36.8 µM; with SF-539 CNS, 30.8 µM. In addition, the TGI in the experiment on SN12C renal is 34 µM; with SNB-19 CNS, 59.1 µM; with SNB-75 CNS, 34.7 µM; in the experiment with TK-10 renal it was 26.5 µM.
For `Cc1ccc(NC2=CC(=O)C(NO)c3ccccc32)cc1` (centres undefined), the TGI was determined as 33.4 µM in the experiment on A498 renal; 12.5 µM in the experiment on ACHN renal; 7.41 µM in the experiment with DU-145 prostate; 10.4 µM with HCT-15 colon; 4.73 µM in the experiment with HL-60(TB) leukemia; 14.6 µM in the experiment with HOP-62 NSCLC. Moreover, the TGI in the experiment with HT29 colon was 17.1 µM; with MDA-MB-231 breast, 7.12 µM; in the experiment on NCI-H226 lung it was 49.3 µM; in the experiment on OVCAR-4 ovarian it was 9.71 µM; in the experiment with SF-295 CNS, 15.4 µM; in the experiment on SF-539 CNS it was 8.8 µM. For the same molecule, the TGI in the experiment with SN12C renal was found to be 10.5 µM; with SNB-19 CNS it was 11.5 µM; in the experiment with SNB-75 CNS, 22.2 µM; in the experiment with TK-10 renal it was 62.7 µM.
In the case of `Nc1cccc(/C=C/C(=O)N2CCN(CCOC(c3ccccc3)c3ccccc3)CC2)c1`, the TGI with A498 renal is 31.6 µM; with ACHN renal, 31.6 µM; with DU-145 prostate, 28.5 µM; with HCT-15 colon it was 31.5 µM; in the experiment on HL-60(TB) leukemia, 32 µM; with HOP-62 NSCLC it was 32.4 µM. The TGI with HT29 colon came to 21.6 µM; with MDA-MB-231 breast, 29.1 µM; in the experiment on NCI-H226 lung, 39.8 µM; with OVCAR-4 ovarian, 26.1 µM; in the experiment on SF-295 CNS, 32.1 µM; in the experiment on SF-539 CNS it was 31 µM. Also, the TGI stood at 33.9 µM with SN12C renal, 32.4 µM with SNB-19 CNS, 26.2 µM in the experiment with SNB-75 CNS and 28.3 µM with TK-10 renal.
